Patent US20110136666A1, “CHEMICAL COMPOUNDS” (SYNGENTA CROP PROTECTION, INC., priority 2008, published 2011)

Assays:
Type in all cases: in vivo
[1] = system: Alopecurus myosuroides (ALOMY); test: Post-emergence biological efficacy, glasshouse pot test; conditions: 312 h, after 13 days, 100=total damage, 0=no damage, read-out: Percentage damage caused to weed species ALOMY
Procedure: (§1) Seeds of Alopecurus myosuroides (ALOMY), Setaria faberi (SETFA), Echinochloa crus-galli (ECHCG), Solanum nigrum (SOLNI), Amaranthus retroflexus (AMARE) and Ipomea hederaceae (IPOHE) were sown in standard soil in pots. After cultivation for 8 days under controlled conditions in a glasshouse (at 24/16° C., day/night; 14 hours light; 65% humidity), the plants were sprayed with an aqueous spray solution derived from the formulation of the technical active ingredient in acetone/water (50:50) solution containing 0.5% Tween 20 (polyoxyethylene sorbitan monolaurate, CAS RN 9005-64-5) to give a final dose of 250 or 1000 g/ha of test compound.
(§2) The test plants were then grown on under controlled conditions in a glasshouse (at 24/16° C., day/night; 14 hours light; 65% humidity) and watered twice daily. After 13 days the test was evaluated (100=total damage to plant; 0=no damage to plant).

[2] = system: Ipomea hederaceae (IPOHE); test: as above; conditions: Ipomoea hederacea, 312 h, after 13 days, 100=total damage, 0=no damage, read-out: Percentage damage caused to weed species IPONE
Procedure: as §1, §2

[3] = system: Amaranthus retroflexus (AMARE); test: as above; conditions: 312 h, after 13 days, 100=total damage, 0=no damage, read-out: Percentage damage caused to weed species AMARE
Procedure: as §1, §2

Setaria faberi (SETFA) [4] = test: as above; conditions: 312 h, after 13 days, 100=total damage, 0=no damage, read-out: Percentage damage caused to weed species SETFA
Procedure: as §1, §2

Solanum nigrum (SOLNI) [5] = test: as above; conditions: 312 h, after 13 days, 100=total damage, 0=no damage, read-out: Percentage damage caused to weed species SOLNI
Procedure: as §1, §2

[6] = system: Echinochloa crus-galli (ECHCG); test: as above; conditions: 312 h, after 13 days, 100=total damage, 0=no damage, read-out: Percentage damage caused to weed species ECHCG
Procedure: as §1, §2

[7] = system: Alopecurus myosuroides (ALOMY); test: Pre-emergence biological efficacy, glasshouse pot test; conditions: 312 h, after 13 days, 100=total damage, 0=no damage, read-out: Percentage damage caused to weed species ALOMY
Procedure: as §1, with “one day” for “8 days”
(§3) The test plants were then grown under controlled conditions in the glasshouse (at 24/16° C., day/night; 14 hours light; 65% humidity) and watered twice daily. After 13 days the test was evaluated (100=total damage to plant; 0=no damage to plant).

[8] = system: Ipomea hederaceae (IPOHE); test: as above; conditions: Ipomoea hederacea, 312 h, after 13 days, 100=total damage, 0=no damage, read-out: Percentage damage caused to weed species IPOHE
Procedure: as §1, with “one day” for “8 days”
as §3

[9] = system: Amaranthus retroflexus (AMARE); test: as above; conditions: 312 h, after 13 days, 100=total damage, 0=no damage, read-out: Percentage damage caused to weed species AMARE
Procedure: as §1, with “one day” for “8 days”
as §3

Setaria faberi (SETFA) [10] = test: as above; conditions: 312 h, after 13 days, 100=total damage, 0=no damage, read-out: Percentage damage caused to weed species SETFA
Procedure: as §1, with “one day” for “8 days”
as §3

Solanum nigrum (SOLNI) [11] = test: as above; conditions: 312 h, after 13 days, 100=total damage, 0=no damage, read-out: Percentage damage caused to weed species SOLNI
Procedure: as §1, with “one day” for “8 days”
as §3

[12] = system: Echinochloa crus-galli (ECHCG); test: as above; conditions: 312 h, after 13 days, 100=total damage, 0=no damage, read-out: Percentage damage caused to weed species ECHCG
Procedure: as §1, with “one day” for “8 days”
as §3

Compound	pest or weed control at 1000 g/ha [1] [%]	pest or weed control at 1000 g/ha [2] [%]	pest or weed control at 1000 g/ha [3] [%]	pest or weed control at 1000 g/ha (Setaria faberi (SETFA) [4]) [%]	pest or weed control at 1000 g/ha (Solanum nigrum (SOLNI) [5]) [%]	pest or weed control at 1000 g/ha [6] [%]	pest or weed control at 1000 g/ha [7] [%]	pest or weed control at 1000 g/ha [8] [%]	pest or weed control at 1000 g/ha [9] [%]	pest or weed control at 1000 g/ha (Setaria faberi (SETFA) [10]) [%]	pest or weed control at 1000 g/ha (Solanum nigrum (SOLNI) [11]) [%]	pest or weed control at 1000 g/ha [12] [%]	pest or weed control at 250 g/ha [1] [%]	pest or weed control at 250 g/ha [2] [%]	pest or weed control at 250 g/ha [3] [%]	pest or weed control at 250 g/ha (Setaria faberi (SETFA) [4]) [%]	pest or weed control at 250 g/ha (Solanum nigrum (SOLNI) [5]) [%]	pest or weed control at 250 g/ha [6] [%]	pest or weed control at 250 g/ha [7] [%]	pest or weed control at 250 g/ha [8] [%]	other results
COC(=O)c1nc(-c2cc3ccccc3s2)nc(N)c1Cl [Compound 2-54, 4-Amino-2-(benzothiophen-2-yl)-5-chloro-6-methoxycarbonyl pyrimidine]	0	80	70	50	40	70	20	0	70	20	20	70									
COC(=O)c1nc(-c2cc3cc(C)ccc3s2)nc(N)c1Cl [Compound 2-55, 4-Amino-5-chloro-6-methoxycarbonyl-2-(5-methylbenzothiophen-2-yl)-pyrimidine]													10	40	70	0	30	0	0	10	pest or weed control at 250 g/ha [9]: 10%; pest or weed control at 250 g/ha (Setaria faberi (SETFA) [10]): 0%; pest or weed control at 250 g/ha (Solanum nigrum (SOLNI) [11]): 0%; pest or weed control at 250 g/ha [12]: 0%
COC(=O)c1nc(-c2csc3ccccc23)nc(N)c1Cl [Compound 2-56, 4-Amino-2-(benzothiophen-3-yl)-5-chloro-6-methoxycarbonyl pyrimidine]	20	20	100	10	40	40	0	0	60	0	0	0									
COC(=O)c1nc(-c2csc3ccc(C)cc23)nc(N)c1Cl [Compound 2-57, 4-amino-5-chloro-6-methoxycarbonyl-2-(5-methylbenz-[b]thiophen-3-yl)-pyrimidine]	0	20	0	0	0	0	0	0	0	0	0	0									
COC(=O)c1nc(-c2c(C)n[nH]c2C)nc(N)c1Cl [Compound 2-72, 4-Amino-5-chloro-2-(3,5-dimethylpyrazol-4-yl)-6-methoxycarbonyl pyrimidine]													0	0	0	0	0	0	0	0	pest or weed control at 250 g/ha [9]: 0%; pest or weed control at 250 g/ha (Setaria faberi (SETFA) [10]): 0%; pest or weed control at 250 g/ha (Solanum nigrum (SOLNI) [11]): 0%; pest or weed control at 250 g/ha [12]: 0%
COC(=O)c1nc(-c2ncc3ccccn23)nc(N)c1Cl [Compound 2-146, 4-Amino-5-chloro-2-(imidazo[1,5-a]pyridin-3-yl)-6-methoxycarbonyl pyrimidine]													0	40	30	0	30	0	0	0	pest or weed control at 250 g/ha [9]: 0%; pest or weed control at 250 g/ha (Setaria faberi (SETFA) [10]): 0%; pest or weed control at 250 g/ha (Solanum nigrum (SOLNI) [11]): 0%; pest or weed control at 250 g/ha [12]: 0%
